Measured values published in publication PMC5513037, “Examining the influence of specificity ligands and ATP-competitive ligands on the overall effectiveness of bivalent kinase inhibitors” (Proteome Science, 2017).
pIC50: −log10 of the molar value.

How the values were obtained:
Test in all cases: KAM-matrix competition in K562 lysate;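 on 0.001 uM KAM: median log10 fold change of treatment over DMSO control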;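 on 0.01 uM KAM: median log10 fold change of treatment over DMSO control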;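 on 0.1 uM KAM: median log10 fold change of treatment over DMSO control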;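 on 1 uM KAM: median log10 fold change of treatment over DMSO control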;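 on 10 uM KAM: median log10 fold change of treatment over DMSO control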
Assay type in all cases: binding
CDK2 = target: T1, CDK2 (Homo sapiens, UniProt P24941)
T1 construct: endogenous in cells; host or cells: K562
Experimental: (§1) Supplement 12953_2017_125_MOESM1_ESM.zip/MS_Supp Info.xlsx, sheet "KAM" | column: 10 uM KAM; 1 uM KAM; 0.1 uM KAM; 0.01 uM KAM; 0.001 uM KAM; RB50

EIF2AK4 = target: T2, EIF2AK4 (Homo sapiens, UniProt Q9P2K8);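 on 0.001 uM KAM: median log10 fold change of treatment over DMSO control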;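 on 0.01 uM KAM: median log10 fold change of treatment over DMSO control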;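 on 0.1 uM KAM: median log10 fold change of treatment over DMSO control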;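 on 1 uM KAM: median log10 fold change of treatment over DMSO control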;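 on 10 uM KAM: median log10 fold change of treatment over DMSO control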
T2 construct: endogenous in cells; host or cells: K562
Experimental: as §1

JAK3 = target: T3, JAK3 (Homo sapiens, UniProt P52333);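 on 0.001 uM KAM: median log10 fold change of treatment over DMSO control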;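 on 0.01 uM KAM: median log10 fold change of treatment over DMSO control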;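 on 0.1 uM KAM: median log10 fold change of treatment over DMSO control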;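 on 1 uM KAM: median log10 fold change of treatment over DMSO control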;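 on 10 uM KAM: median log10 fold change of treatment over DMSO control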
T3 construct: endogenous in cells; host or cells: K562
T3 sequence (P52333 1-1124): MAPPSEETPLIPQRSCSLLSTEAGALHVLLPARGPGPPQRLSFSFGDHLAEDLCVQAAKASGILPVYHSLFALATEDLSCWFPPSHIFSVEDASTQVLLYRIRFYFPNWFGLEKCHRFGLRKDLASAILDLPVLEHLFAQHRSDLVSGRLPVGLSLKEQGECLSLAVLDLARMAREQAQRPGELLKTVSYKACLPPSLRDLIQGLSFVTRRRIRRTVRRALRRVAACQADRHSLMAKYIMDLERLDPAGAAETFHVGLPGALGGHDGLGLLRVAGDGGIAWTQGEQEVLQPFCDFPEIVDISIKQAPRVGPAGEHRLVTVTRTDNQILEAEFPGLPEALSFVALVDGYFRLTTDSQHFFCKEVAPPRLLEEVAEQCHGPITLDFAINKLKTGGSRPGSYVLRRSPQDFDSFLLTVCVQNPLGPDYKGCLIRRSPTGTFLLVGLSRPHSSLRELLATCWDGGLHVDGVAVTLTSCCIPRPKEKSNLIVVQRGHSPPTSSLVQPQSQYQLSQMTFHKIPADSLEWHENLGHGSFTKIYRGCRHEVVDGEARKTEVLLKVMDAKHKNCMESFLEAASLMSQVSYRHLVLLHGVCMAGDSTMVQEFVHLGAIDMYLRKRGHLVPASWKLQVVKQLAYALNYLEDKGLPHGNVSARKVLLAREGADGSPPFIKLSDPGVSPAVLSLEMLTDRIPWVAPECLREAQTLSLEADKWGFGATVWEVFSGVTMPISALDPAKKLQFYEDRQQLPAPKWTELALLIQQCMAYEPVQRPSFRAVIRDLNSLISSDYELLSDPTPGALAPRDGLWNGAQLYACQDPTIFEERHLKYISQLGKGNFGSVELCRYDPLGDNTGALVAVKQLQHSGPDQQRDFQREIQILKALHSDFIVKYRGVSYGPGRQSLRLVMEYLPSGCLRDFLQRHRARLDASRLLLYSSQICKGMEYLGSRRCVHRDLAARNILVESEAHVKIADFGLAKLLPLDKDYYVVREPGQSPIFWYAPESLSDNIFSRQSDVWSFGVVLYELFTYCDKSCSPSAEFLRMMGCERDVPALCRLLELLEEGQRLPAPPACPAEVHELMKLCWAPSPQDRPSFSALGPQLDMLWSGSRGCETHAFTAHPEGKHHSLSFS
Experimental: as §1

LRRK2 = target: T4, LRRK2 (Homo sapiens, UniProt Q5S007);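 on 0.001 uM KAM: median log10 fold change of treatment over DMSO control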;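 on 0.01 uM KAM: median log10 fold change of treatment over DMSO control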;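 on 0.1 uM KAM: median log10 fold change of treatment over DMSO control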;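 on 1 uM KAM: median log10 fold change of treatment over DMSO control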;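 on 10 uM KAM: median log10 fold change of treatment over DMSO control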
T4 construct: endogenous in cells; host or cells: K562
Experimental: as §1

MAPK6 = target: T5, MAPK6 (Homo sapiens, UniProt Q16659)
T5 construct: endogenous in cells; host or cells: K562
Experimental: as §1

MST1R = target: T6, MST1R (Homo sapiens, UniProt Q04912);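 on 0.001 uM KAM: median log10 fold change of treatment over DMSO control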;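 on 0.01 uM KAM: median log10 fold change of treatment over DMSO control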;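 on 0.1 uM KAM: median log10 fold change of treatment over DMSO control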;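 on 1 uM KAM: median log10 fold change of treatment over DMSO control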;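 on 10 uM KAM: median log10 fold change of treatment over DMSO control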
T6 construct: endogenous in cells; host or cells: K562
Experimental: as §1

PAK6 = target: T7, PAK6 (Homo sapiens, UniProt Q9NQU5)
T7 construct: endogenous in cells; host or cells: K562
Experimental: as §1

PEAK1 = target: T8, PEAK1 (Homo sapiens, UniProt Q9H792);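 on 0.001 uM KAM: median log10 fold change of treatment over DMSO control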;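 on 0.01 uM KAM: median log10 fold change of treatment over DMSO control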;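 on 0.1 uM KAM: median log10 fold change of treatment over DMSO control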;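 on 1 uM KAM: median log10 fold change of treatment over DMSO control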;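 on 10 uM KAM: median log10 fold change of treatment over DMSO control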
T8 construct: endogenous in cells; host or cells: K562
Experimental: as §1

UHMK1 = target: T9, UHMK1 (Homo sapiens, UniProt Q8TAS1);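 on 0.001 uM KAM: median log10 fold change of treatment over DMSO control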;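 on 0.01 uM KAM: median log10 fold change of treatment over DMSO control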;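 on 0.1 uM KAM: median log10 fold change of treatment over DMSO control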;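 on 1 uM KAM: median log10 fold change of treatment over DMSO control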;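 on 10 uM KAM: median log10 fold change of treatment over DMSO control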
T9 construct: endogenous in cells; host or cells: K562
T9 sequence (Q8TAS1 1-419): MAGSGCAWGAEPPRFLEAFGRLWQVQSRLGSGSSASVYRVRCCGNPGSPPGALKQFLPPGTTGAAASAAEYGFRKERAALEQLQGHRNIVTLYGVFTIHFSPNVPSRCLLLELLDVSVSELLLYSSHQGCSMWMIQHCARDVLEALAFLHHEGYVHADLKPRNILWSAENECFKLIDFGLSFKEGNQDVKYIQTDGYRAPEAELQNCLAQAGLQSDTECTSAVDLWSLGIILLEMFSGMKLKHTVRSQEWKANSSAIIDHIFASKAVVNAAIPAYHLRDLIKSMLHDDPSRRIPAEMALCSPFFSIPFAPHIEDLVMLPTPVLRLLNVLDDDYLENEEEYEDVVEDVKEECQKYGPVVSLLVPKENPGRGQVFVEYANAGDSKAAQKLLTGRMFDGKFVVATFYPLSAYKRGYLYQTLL
Experimental: as §1

[1] = read-out: RB50 (the source's name)
[2] = KAM 0.001-10 uM, read-out: RB50 (the source's name)

T4 sequence (Q5S007 whole entry): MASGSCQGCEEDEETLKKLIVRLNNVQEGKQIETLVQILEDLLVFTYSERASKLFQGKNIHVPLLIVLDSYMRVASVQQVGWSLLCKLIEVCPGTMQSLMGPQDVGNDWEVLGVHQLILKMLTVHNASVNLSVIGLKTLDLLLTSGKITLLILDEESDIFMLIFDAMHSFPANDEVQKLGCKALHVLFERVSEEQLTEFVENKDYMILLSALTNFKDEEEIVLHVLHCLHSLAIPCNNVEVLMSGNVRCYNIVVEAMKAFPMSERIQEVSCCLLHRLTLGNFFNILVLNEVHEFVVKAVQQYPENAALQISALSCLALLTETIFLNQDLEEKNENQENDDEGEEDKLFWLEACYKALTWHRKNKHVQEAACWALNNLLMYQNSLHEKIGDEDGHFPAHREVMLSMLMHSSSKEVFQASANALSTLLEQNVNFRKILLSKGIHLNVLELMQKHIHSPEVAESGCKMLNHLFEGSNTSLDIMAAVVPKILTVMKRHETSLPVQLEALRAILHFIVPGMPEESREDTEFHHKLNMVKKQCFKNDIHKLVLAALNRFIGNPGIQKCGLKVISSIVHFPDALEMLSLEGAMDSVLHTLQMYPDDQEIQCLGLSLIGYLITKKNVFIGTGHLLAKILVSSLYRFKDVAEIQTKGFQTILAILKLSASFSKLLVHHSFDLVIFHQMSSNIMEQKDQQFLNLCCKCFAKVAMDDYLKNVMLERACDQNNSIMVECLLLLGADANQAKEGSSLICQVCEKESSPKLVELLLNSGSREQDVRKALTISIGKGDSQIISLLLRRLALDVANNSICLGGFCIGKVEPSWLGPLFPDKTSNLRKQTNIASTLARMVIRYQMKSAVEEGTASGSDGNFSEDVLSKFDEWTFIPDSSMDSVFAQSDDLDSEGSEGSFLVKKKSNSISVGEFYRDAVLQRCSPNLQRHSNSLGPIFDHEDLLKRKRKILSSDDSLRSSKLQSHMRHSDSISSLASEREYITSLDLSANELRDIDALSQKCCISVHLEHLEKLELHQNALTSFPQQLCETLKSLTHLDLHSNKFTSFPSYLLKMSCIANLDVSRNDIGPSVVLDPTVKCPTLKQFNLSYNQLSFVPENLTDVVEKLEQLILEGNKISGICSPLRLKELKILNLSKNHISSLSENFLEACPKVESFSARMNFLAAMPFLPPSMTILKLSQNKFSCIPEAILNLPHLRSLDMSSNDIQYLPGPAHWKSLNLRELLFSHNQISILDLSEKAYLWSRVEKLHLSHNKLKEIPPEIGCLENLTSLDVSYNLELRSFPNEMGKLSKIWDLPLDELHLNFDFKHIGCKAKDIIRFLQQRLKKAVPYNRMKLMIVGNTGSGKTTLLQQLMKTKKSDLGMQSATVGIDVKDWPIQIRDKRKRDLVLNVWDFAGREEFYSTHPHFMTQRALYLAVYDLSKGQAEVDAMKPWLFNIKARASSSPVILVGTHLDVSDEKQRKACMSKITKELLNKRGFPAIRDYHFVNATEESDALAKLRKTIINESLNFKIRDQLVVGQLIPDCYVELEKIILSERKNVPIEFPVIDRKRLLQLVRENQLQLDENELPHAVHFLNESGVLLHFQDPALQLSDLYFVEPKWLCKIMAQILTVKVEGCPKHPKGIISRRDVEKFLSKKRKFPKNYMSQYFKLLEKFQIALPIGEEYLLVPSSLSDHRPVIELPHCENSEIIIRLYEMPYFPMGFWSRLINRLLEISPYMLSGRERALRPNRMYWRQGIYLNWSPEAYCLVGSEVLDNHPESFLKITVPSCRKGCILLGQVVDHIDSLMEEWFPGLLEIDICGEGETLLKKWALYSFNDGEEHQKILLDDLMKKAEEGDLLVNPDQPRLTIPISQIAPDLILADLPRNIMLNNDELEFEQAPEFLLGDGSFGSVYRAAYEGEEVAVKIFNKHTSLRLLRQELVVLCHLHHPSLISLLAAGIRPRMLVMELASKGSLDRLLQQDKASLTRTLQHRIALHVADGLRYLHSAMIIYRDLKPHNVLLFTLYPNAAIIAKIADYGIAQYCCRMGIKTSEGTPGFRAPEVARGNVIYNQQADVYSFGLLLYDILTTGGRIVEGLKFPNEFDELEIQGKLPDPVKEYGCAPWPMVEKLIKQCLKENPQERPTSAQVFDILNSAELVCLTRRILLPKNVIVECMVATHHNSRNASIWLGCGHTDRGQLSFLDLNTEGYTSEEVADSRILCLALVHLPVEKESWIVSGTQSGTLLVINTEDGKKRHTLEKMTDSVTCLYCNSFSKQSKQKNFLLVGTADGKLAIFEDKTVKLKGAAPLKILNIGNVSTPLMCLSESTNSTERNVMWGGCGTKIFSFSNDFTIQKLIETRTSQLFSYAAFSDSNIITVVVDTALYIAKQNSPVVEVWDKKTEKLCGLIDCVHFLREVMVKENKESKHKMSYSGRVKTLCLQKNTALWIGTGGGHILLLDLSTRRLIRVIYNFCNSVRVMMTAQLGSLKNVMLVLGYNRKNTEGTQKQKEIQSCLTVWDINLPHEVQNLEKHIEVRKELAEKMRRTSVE
T5 sequence (Q16659 whole entry): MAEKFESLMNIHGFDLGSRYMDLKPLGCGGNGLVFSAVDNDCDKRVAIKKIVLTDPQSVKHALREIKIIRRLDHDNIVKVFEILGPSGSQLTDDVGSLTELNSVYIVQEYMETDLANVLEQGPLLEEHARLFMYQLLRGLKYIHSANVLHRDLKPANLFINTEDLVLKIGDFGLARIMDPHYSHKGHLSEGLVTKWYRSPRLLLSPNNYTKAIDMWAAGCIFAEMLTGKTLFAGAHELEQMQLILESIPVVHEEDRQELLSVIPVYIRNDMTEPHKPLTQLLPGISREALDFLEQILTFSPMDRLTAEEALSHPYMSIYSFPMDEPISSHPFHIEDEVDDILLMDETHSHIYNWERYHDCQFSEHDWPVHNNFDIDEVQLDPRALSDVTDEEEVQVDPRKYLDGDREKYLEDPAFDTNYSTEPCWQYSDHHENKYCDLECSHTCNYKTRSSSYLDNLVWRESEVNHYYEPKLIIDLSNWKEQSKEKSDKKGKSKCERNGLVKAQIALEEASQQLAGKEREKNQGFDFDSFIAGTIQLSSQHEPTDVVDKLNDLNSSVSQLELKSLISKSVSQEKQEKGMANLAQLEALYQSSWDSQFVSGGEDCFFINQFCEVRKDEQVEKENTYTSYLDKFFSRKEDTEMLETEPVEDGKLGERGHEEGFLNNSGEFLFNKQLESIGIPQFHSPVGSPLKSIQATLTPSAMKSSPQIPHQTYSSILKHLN
T8 sequence (Q9H792 whole entry): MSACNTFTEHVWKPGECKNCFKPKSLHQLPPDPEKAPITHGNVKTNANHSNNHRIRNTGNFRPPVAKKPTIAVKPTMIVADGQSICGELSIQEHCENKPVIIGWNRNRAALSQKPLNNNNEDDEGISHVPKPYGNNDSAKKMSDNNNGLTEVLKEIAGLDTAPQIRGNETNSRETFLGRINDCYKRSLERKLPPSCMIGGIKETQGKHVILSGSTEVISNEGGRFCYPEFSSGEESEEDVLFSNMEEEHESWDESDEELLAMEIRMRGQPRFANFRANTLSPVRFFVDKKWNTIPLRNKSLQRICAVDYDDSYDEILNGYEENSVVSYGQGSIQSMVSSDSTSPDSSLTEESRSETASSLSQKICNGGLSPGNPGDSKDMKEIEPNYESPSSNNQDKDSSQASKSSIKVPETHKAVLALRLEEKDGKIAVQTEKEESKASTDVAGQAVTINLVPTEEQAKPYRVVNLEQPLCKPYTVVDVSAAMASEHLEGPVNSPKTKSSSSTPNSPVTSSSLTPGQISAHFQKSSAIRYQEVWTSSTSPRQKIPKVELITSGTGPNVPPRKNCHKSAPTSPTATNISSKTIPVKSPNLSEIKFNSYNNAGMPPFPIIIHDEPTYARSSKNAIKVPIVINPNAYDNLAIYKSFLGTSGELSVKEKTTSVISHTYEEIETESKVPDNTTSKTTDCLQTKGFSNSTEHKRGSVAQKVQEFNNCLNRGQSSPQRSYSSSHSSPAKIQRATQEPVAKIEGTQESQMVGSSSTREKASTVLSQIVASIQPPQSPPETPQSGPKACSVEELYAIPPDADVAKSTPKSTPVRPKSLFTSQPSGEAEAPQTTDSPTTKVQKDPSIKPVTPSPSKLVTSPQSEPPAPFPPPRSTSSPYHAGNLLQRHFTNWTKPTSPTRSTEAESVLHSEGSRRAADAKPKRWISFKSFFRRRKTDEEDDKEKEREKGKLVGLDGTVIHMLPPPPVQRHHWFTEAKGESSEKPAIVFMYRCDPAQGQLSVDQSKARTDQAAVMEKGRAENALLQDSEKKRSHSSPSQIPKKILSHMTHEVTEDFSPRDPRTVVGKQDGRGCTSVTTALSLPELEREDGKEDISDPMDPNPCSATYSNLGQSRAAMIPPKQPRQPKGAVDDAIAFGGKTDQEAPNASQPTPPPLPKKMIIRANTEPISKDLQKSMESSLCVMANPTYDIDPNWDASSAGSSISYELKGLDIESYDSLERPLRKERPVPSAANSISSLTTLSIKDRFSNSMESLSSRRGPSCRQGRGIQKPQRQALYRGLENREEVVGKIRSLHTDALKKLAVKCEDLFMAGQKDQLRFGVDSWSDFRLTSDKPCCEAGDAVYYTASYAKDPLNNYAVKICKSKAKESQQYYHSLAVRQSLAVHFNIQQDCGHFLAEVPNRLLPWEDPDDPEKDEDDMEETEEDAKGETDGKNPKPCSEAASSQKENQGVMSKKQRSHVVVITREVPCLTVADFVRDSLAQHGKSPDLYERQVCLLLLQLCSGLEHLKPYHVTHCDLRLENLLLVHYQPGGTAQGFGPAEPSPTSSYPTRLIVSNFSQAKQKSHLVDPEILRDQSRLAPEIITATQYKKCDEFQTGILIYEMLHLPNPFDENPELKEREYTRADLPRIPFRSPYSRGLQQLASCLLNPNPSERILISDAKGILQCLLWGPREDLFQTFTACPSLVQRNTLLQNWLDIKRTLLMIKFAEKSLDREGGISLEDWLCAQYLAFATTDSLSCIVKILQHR

Q: For N#CCc1ccc(Nc2nc(NCCCN)cc(Nc3cc(C4CC4)[nH]n3)n2)cc1 [KAM], which “median Log10 fold change” value (CDK2; 0.001 uM KAM) is on record?
A: -0.01597

Q: What about the “median Log10 fold change” value (CDK2; 0.01 uM KAM) of the same molecule?
A: -0.009383

Q: What about the “median Log10 fold change” value (CDK2; 0.1 uM KAM) of the same molecule?
A: -0.2687

Q: And the “median Log10 fold change” value (CDK2; 1 uM KAM)?
A: -0.5288

Q: And the “median Log10 fold change” value (CDK2; 10 uM KAM)?
A: -0.6805

Q: And the pIC50 (CDK2; [1])?
A: 6.75

Q: What about the pIC50 (EIF2AK4; [2]) of the same molecule?
A: < 5.00

Q: What about the “0.001 uM KAM” value (EIF2AK4; relative to 0 uM KAM = 0) of the same molecule?
A: -0.0489

Q: What about the “0.01 uM KAM” value (EIF2AK4; relative to 0 uM KAM = 0) of the same molecule?
A: 0.01964

Q: And the “0.1 uM KAM” value (EIF2AK4; relative to 0 uM KAM = 0)?
A: -0.07688

Q: And the “1 uM KAM” value (EIF2AK4; relative to 0 uM KAM = 0)?
A: -0.1098

Q: And the “10 uM KAM” value (EIF2AK4; relative to 0 uM KAM = 0)?
A: -0.203

Q: And the pIC50 (JAK3; [2])?
A: < 5.00

Q: And the “0.001 uM KAM” value (JAK3; relative to 0 uM KAM = 0)?
A: -0.04271

Q: And the “0.01 uM KAM” value (JAK3; relative to 0 uM KAM = 0)?
A: -0.0544

Q: What about the “0.1 uM KAM” value (JAK3; relative to 0 uM KAM = 0) of the same molecule?
A: -0.1188

Q: What about the “1 uM KAM” value (JAK3; relative to 0 uM KAM = 0) of the same molecule?
A: -0.2952

Q: And the “10 uM KAM” value (JAK3; relative to 0 uM KAM = 0)?
A: -0.1976

Q: What about the pIC50 (LRRK2; [2]) of the same molecule?
A: < 5.00

Q: What about the “0.001 uM KAM” value (LRRK2; relative to 0 uM KAM = 0) of the same molecule?
A: -0.05098

Q: And the “0.01 uM KAM” value (LRRK2; relative to 0 uM KAM = 0)?
A: -0.01752

Q: What about the “0.1 uM KAM” value (LRRK2; relative to 0 uM KAM = 0) of the same molecule?
A: 0.02155

Q: What about the “1 uM KAM” value (LRRK2; relative to 0 uM KAM = 0) of the same molecule?
A: 0.06199

Q: What about the “10 uM KAM” value (LRRK2; relative to 0 uM KAM = 0) of the same molecule?
A: -0.09009

Q: What about the “median Log10 fold change” value (MAPK6; 0.001 uM KAM) of the same molecule?
A: 0.01888

Q: And the “median Log10 fold change” value (MAPK6; 0.01 uM KAM)?
A: 0.003428

Q: What about the “median Log10 fold change” value (MAPK6; 0.1 uM KAM) of the same molecule?
A: -0.1658

Q: What about the “median Log10 fold change” value (MAPK6; 1 uM KAM) of the same molecule?
A: -0.3554

Q: What about the “median Log10 fold change” value (MAPK6; 10 uM KAM) of the same molecule?
A: -0.4572

Q: And the pIC50 (MAPK6; [1])?
A: 6.12

Q: And the pIC50 (MST1R; [2])?
A: < 5.00

Q: And the “0.001 uM KAM” value (MST1R; relative to 0 uM KAM = 0)?
A: -0.1284

Q: What about the “0.01 uM KAM” value (MST1R; relative to 0 uM KAM = 0) of the same molecule?
A: -0.04073

Q: What about the “0.1 uM KAM” value (MST1R; relative to 0 uM KAM = 0) of the same molecule?
A: -0.1983

Q: And the “1 uM KAM” value (MST1R; relative to 0 uM KAM = 0)?
A: -0.07265

Q: What about the “10 uM KAM” value (MST1R; relative to 0 uM KAM = 0) of the same molecule?
A: -0.08067

Q: What about the “median Log10 fold change” value (PAK6; 0.001 uM KAM) of the same molecule?
A: -0.09371

Q: What about the “median Log10 fold change” value (PAK6; 0.01 uM KAM) of the same molecule?
A: 0.03145

Q: And the “median Log10 fold change” value (PAK6; 0.1 uM KAM)?
A: -0.196

Q: What about the “median Log10 fold change” value (PAK6; 1 uM KAM) of the same molecule?
A: -0.3777

Q: What about the “median Log10 fold change” value (PAK6; 10 uM KAM) of the same molecule?
A: -0.6349

Q: And the pIC50 (PAK6; [1])?
A: 6.28

Q: And the pIC50 (PEAK1; [2])?
A: < 5.00

Q: And the “0.001 uM KAM” value (PEAK1; relative to 0 uM KAM = 0)?
A: 0.04051

Q: And the “0.01 uM KAM” value (PEAK1; relative to 0 uM KAM = 0)?
A: 0.04298

Q: And the “0.1 uM KAM” value (PEAK1; relative to 0 uM KAM = 0)?
A: 0.03477

Q: And the “1 uM KAM” value (PEAK1; relative to 0 uM KAM = 0)?
A: 0.09337

Q: And the “10 uM KAM” value (PEAK1; relative to 0 uM KAM = 0)?
A: 0.04238

Q: And the pIC50 (UHMK1; [2])?
A: < 5.00

Q: What about the “0.001 uM KAM” value (UHMK1; relative to 0 uM KAM = 0) of the same molecule?
A: -0.05175

Q: And the “0.01 uM KAM” value (UHMK1; relative to 0 uM KAM = 0)?
A: -0.019

Q: And the “0.1 uM KAM” value (UHMK1; relative to 0 uM KAM = 0)?
A: 0.009765

Q: And the “1 uM KAM” value (UHMK1; relative to 0 uM KAM = 0)?
A: -0.08212

Q: What about the “10 uM KAM” value (UHMK1; relative to 0 uM KAM = 0) of the same molecule?
A: -0.08774
